Data published in article PMC7321108, “1-Hydroxyanthraquinones Containing Aryl Substituents as Potent and Selective Anticancer Agents” (Molecules, 2020).

Assays:
[1] = system: DU-145 prostate cancer cells; experiment: MTT cytotoxicity assay, DU-145; format: cell-based, human; conditions: Homo sapiens, DU-145, 72 h, 72 h incubation, mean ± SEM of three experiments, read-out: Cytotoxicity (GI50) against DU-145
Procedure: (§1) The cytotoxicity of the synthesized series of 4-substituted 5, 13–17, 22, 23, 2-substituted 25–30 and 2,4-disubstituted 1-hydroxy-9,10-anthraquinones 33–38, 40–45 was evaluated against a panel of seven different human cancer cell lines (glioblastoma cancer cells, human prostate cancer cells, T-cellular human leucosis, breast cancer cells) and also a normal cell line of hTERT-immortalized lung fibroblasts, using conventional MTT assay. Doxorubicin (DOX) is clinically used to treat cancer as drug in world and have a very wide antitumor spectrum. That we use them as positive control compounds. The cytotoxicity was determined by measuring the concentration inhibiting human tumor cell viability by 50% (GI50).
(§2) The human cancer cells of the glioblastoma (U-87MG, SNB-19, T98G), prostate cancer cell line (LNCAP, DU-145), the cells of T-cellular human leucosis (MT-4) and human breast cancer cells (MDA-MB-231) were used in this study. The cells were cultured in the RPMI-1640 medium that contained 10% embryonic calf serum, L-glutamine (2 mmol/L), gentamicin ([…]) and lincomycin (30 mkg/mL) in a CO2 incubator at 37 °C. The tested compounds were dissolved in DMSO and added to the cellular culture at the required concentrations. Three wells were used for each concentration. The cells which were incubated without the compounds were used as a control. Cells were placed on 96-well microliter plates and cultivated at 37 °C in 5% CO2/95% air for 72 h. The cell viability was assessed through an MTT [3-(4,5-dimethylthiazol-2-yl)-[…]-2H-tetrazolium bromide] conversion assay. A total of 1% MTT was added to each well. Four hours later, DMSO was added and mixed for 15 min. Optical density (D) of the samples was measured on a BioRad 680 multi-well spectrophotometer (USA) at the wavelength of 450 nm. The 50% cytotoxic dose GI50) of each compound (i.e., the compound concentration that causes the death of 50% of cells in a culture, or decreases the optical density twice as compared to the control wells) was calculated from the data obtained. Statistical processing of the results was performed using the Microsoft Excel-2007, […] 6.0 and GraphPad Prism 5.0 programs. The results are given as an average value ± a deviation from the average (mean ± standard error of the mean (SEM)). Reliability of differences (p) was estimated using the Student t test. The differences with p < 0.05 were considered as reliable. The experimental results are given as the data average values obtained from three independently conducted experiments.

T98G glioblastoma cells = experiment: MTT cytotoxicity assay, T98G; format: cell-based; conditions: Homo sapiens, 72 h incubation, mean ± SEM of three experiments, read-out: Cytotoxicity (GI50) against T98G
Procedure: as §1, §2

SNB-19 cells [2] = experiment: DNA synthesis investigation (BrdU/PI flow cytometry), SNB-19; format: cell-based, human; conditions: SNB-19, treated at GI50 concentration, 24 h, BrdU 30 min
Procedure: (§4) Cell cycle analysis was performed by Flow Cytometry using BrdU and PI staining [63]. For this experiment cells were seeded in 6-well plates (30,000 per plate) and incubate for adhesion for 24 h. […] For the next step the BrdU stock was added at a final concentration of 30 µM and cells were incubated for 30 min. Cells were washed with PBS, harvested using trypsine and resuspended at 0.3 mL of PBS. Permeabilization of cell membrane was performed as follows: 0.7 mL of ice-cold 100% EtOH was added into each sample, mixed gently and incubate at 4 °C for 1 h. Cells were pelleted and supernatant was removed completely. Then 0.5 mL of 2 N HCl/0.5% Triton X-100 was added and samples were incubated 30 min at room temperature. Cells were pelleted again, supernatant was removed. The pellet was resuspended in 0.5 mL of 0.1 M sodium tetraborate for 2 min and cells were pelleted again, washed with 150 µL of PBS/1% BSA and resuspended in 50 µM 0.5% Tween 20/1% BSA/PBS. […] After that the samples were resuspended in 0.5 mL of PBS containing 10 mg/mL RNAse A and 20 mg/mL PI. Samples were incubated at room temperature for 30 min and analyzed immediately or store at 4 °C. CytoFLEX flow cytometer (Beckman Coulter) was used for analysis. The results are presented as a percentage of cell population standing in DNA synthesis process.

SNB-19 cells [3] = experiment: Cell cycle analysis by flow cytometry (Hoechst 33342), SNB-19; format: cell-based, human; conditions: SNB-19, treated at GI50 concentration, 24 h
Procedure: Due to the fact that the implementation of the antitumor potential of the currently existing antitumor agents is carried out by acting on various biological targets, at the next stage we performed the cell cycle analysis and DNA synthesis. Cell cycle analysis of 1-hydroxy-4-phenyl-9,10-anthraquinone 13, 1-hydroxy-4-(2,3-dimethoxyphenyl)-9,10- anthraquinone 16, 1-hydroxy-4-(furan-3-yl)-9,10-anthraquinone 23 and 1-hydroxy- 2-(2,3-dimethoxyphenyl)-9,10-anthraquinone 28 against SNB-19 cells for 24 h produced interesting results. After examining the data for compounds 13 and 16 (Table 3, Figure 4C,D), good number of cells are distributed in S phase, i.e., initiated DNA replication mechanism and also in G0/G1 phase, i.e., initial phase of cell cycle. G1 and G2 are the growth phases in cell cycle analysis, whereas S phase is a synthetic phase wherein DNA replication and DNA synthesis take place. The 2-aryl substituted compound 28 initiated the G0/G1 phase in analogy with doxorubicin and mitomycin. […] Further, compounds play a vital role in controlling the regulation of Sub-G1 and G2/M phases. Some difference in the mechanism of operation of 4-aryl substituted 13,16 and 2-aryl substituted 9,10-anthraquinones 28 has been observed during the progression of cell cycle like: S phase was highly disturbed by 13; G0/G1 phase was highly disturbed by 28. […] This observation can be explained by the influence on the cell repair systems that respond to the intercalation of compounds in DNA. […] Further, mitoxantrone promotes the arrest of S phase of cell cycle.
(§3) For cell cycle analysis cells were seeded in 6-well plates (30,000 per plate) and incubate for adhesion for 24 h. […] Cells were washed with PBS twice, harvested, pelleted and resuspended in 0.5 mL of PBS. For staining the Hoechst 33342 Ready Flow Reagent (Invitrogen) was used according to the instruction. CytoFLEX flow cytometer (Beckman Coulter) was used for analysis. The results are presented as a percentage of cell population standing in different stages of the cell cycle.

[4] = system: U-87MG glioblastoma cells; experiment: MTT cytotoxicity assay, U-87MG; format: cell-based; conditions: Homo sapiens, 72 h incubation, mean ± SEM of three experiments, read-out: Cytotoxicity (GI50) against U-87MG
Procedure: as §1, §2

[5] = MTT cytotoxicity assay, normal hTERT-immortalized lung fibroblasts; format: cell-based; conditions: human, hTERT-immortalized lung fibroblasts (normal cell line), 72 h incubation, mean ± SEM of three experiments, read-out: Cytotoxicity (GI50) against hTERT Lung Fibroblasts
Procedure: as §1, §2

pUC19 DNA plasmid = experiment: Gel retardation (electrophoretic mobility shift) assay; format: binding; conditions: 0.5 µg pUC19 plasmid, 0.025 µM test compound, room temperature 1 h, agarose gel 60 V 4 h
Procedure: The interaction of compounds 13, 15, 16, 23, 25 27, 28, 35, 40 and 44 with DNA was experimentally confirmed by study of the electrophoretic mobility. For this the gel retardation assay was performed. Doxorubicin in different concentration was used as a positive control. In order to avoid destruction of the possible complex of DNA with compounds, the electrophoresis was performed at low voltage. The results are presented at Figure 3.
To study the interaction between test compounds and DNA the electrophoretic mobility shift assay was performed. 0.5 µg of pUC19 plasmid was incubated with 0.025 µM of test compounds at room temperature for 1 h. After that the electrophoresis was performed in agarose gel (1/2%) in TBE buffer (60 V, 4 h). For visualization the gel was staining with ethidium bromide and analyzed with Bio-Rad gel documentation system.

[6] = system: LNCAP prostate cancer cells; experiment: MTT cytotoxicity assay, LNCAP; format: cell-based, human; conditions: Homo sapiens, LNCaP, 72 h, 72 h incubation, mean ± SEM of three experiments, read-out: Cytotoxicity (GI50) against LNCAP
Procedure: as §1, §2

[7] = system: MT-4 cells of T-cellular human leucosis; experiment: MTT cytotoxicity assay, MT-4; format: cell-based; conditions: MT4, 72 h incubation, mean ± SEM of three experiments, read-out: Cytotoxicity (GI50) against MT-4
Procedure: as §1, §2

[8] = system: SNB-19 glioblastoma cells; experiment: MTT cytotoxicity assay, SNB-19; format: cell-based; conditions: Homo sapiens, 72 h incubation, mean ± SEM of three experiments, read-out: Cytotoxicity (GI50) against SNB-19
Procedure: as §1, §2

[9] = system: MDA-MB-231 breast cancer cells; experiment: MTT cytotoxicity assay, MDA-MB-231; format: cell-based; conditions: Homo sapiens, 72 h incubation, mean ± SEM of three experiments, read-out: Cytotoxicity (GI50) against MDA-MB-231
Procedure: as §1, §2

DU-145 cells [10] = experiment: Cell cycle analysis by flow cytometry (Hoechst 33342), DU-145; format: cell-based, human; conditions: DU-145, treated at GI50 concentration, 24 h
Procedure: We have carried out flow cytometric study of compounds 13, 16 and the isomeric compound 25 (Table 4, Figure 4G,H). Concentrations of 16 and 25 were taken as 5.4 and 14.5 μM, respectively, as per cytotoxic studies (Table 1). After examining the data for 13 (Figure 4G, Table 4), a good number of cells are arrested in Sub-G1, G0/G1 and S phase. Biosynthetic activity is very high during Sub-G1 phase; this is probably achieved by enhancing of apoptosis. The isomeric molecule 25 arrest G0/G1 and S phases, i.e., affecting the DNA synthesis/replication mechanism. Similarly, for 25 a different pattern is observed, i.e., variations at S and G2/M phases were observed, in comparison to the control. […] Some difference in the mechanism of operation of 13 and 25 has been observed during the progression of cell cycle like: Sub-G1 phase was highly disturbed by 13 and S and G0/G1 phases were highly disturbed by 25.
as §3

DU-145 cells [11] = experiment: DNA synthesis investigation (BrdU/PI flow cytometry), DU-145; format: cell-based, human; conditions: DU-145, treated at GI50 concentration, 24 h, BrdU 30 min
Procedure: as §4

Row | SMILES | GI50 [1] | GI50 (T98G glioblastoma cells) | Population (% Cell Distribution) DNA Synthesis (SNB-19 cells [2]) | Population (% Cell Distribution) G0/G1 (SNB-19 cells [3]) | Population (% Cell Distribution) G2/M (SNB-19 cells [3]) | Population (% Cell Distribution) S (SNB-19 cells [3]) | Population (% Cell Distribution) Sub-G1 (SNB-19 cells [3]) | Population (% Cell Distribution) Super-G2 (SNB-19 cells [3]) | GI50 [4] | GI50 at 72 h [5] | melting point | GI50 [6] | GI50 [7] | GI50 [8] | GI50 [9] | Population (% Cell Distribution) G0/G1 (DU-145 cells [10]) | Population (% Cell Distribution) G2/M (DU-145 cells [10]) | Population (% Cell Distribution) S (DU-145 cells [10]) | Population (% Cell Distribution) Sub-G1 (DU-145 cells [10]) | Population (% Cell Distribution) Super-G2 (DU-145 cells [10]) | further results
1 | O=C1c2ccccc2C(=O)c2c(-c3ccoc3)ccc(O)c21 [Compound 23, 1-(Furan-3-yl)-4-hydroxyanthracene-9,10-dione] | 15.4 ± 0.96 µM | 34.8 ± 1.06 µM | 22.71% | 34.6% | 17.3% | 32.5% | 3.1% | 11.8% | 58.7 ± 2.48 µM | 69.5 ± 1.52 µM | 190 °C (dec.) | 22.2 ± 2.12 µM | 56.1 ± 1.96 µM | 37 ± 1.41 µM | 18.2 ± 1.27 µM |  |  |  |  |  | Retardation of plasmid DNA (electrophoretic mobility) (pUC19 DNA plasmid): cause a retardation of plasmid DNA
2 | O=C1c2ccccc2C(=O)c2c1ccc(-c1ccccc1)c2O [Compound 25, 1-Hydroxy-2-phenylanthracene-9,10-dione] | 14.5 ± 0.73 µM | 21.5 ± 0.92 µM |  |  |  |  |  |  | > 100 µM | 44.6 ± 2.46 µM | 174.1 °C (dec.) | 32.1 ± 8.55 µM | > 100 µM | 6.8 ± 1.19 µM | 16.5 ± 0.88 µM | 32.3% | 7.4% | 32.4% | 25.9% | 2.0% | Population (% Cell Distribution) DNA Synthesis (DU-145 cells [11]): 20.27%
3 | COc1cccc(-c2ccc3c(c2O)C(=O)c2ccccc2C3=O)c1OC [Compound 28, 2-(2,3-Dimethoxyphenyl)-1-hydroxyanthracene-9,10-dione] | > 100 µM | 32.6 ± 1.68 µM | 16.83% | 54.5% | 13.7% | 22.4% | 3.6% | 5.8% | > 100 µM | 51.3 ± 3.18 µM | 176.3 °C (dec.) | 23.1 ± 1.24 µM | 18.2 ± 0.86 µM | 5.77 ± 0.23 µM | 42.4 ± 3.32 µM |  |  |  |  |  | 
4 | CO[C@@]12[C@H](COC(N)=O)C3=C(C(=O)C(C)=C(N)C3=O)N1C[C@@H]1N[C@@H]12 [Mitomycin C, reference compound] |  |  | 7.44% | 63.6% | 4.1% | 25.2% | 0.0% | 7.0% |  |  |  |  |  |  |  | 50.3% | 16.3% | 13.2% | 0.1% | 20.2% | Population (% Cell Distribution) DNA Synthesis (DU-145 cells [11]): 5.74%
